Results as given in patent US8455688B2, “HDAC inhibitors” (Lixte Biotechnology, Inc., priority 2007, dated 2013).
In brackets after ≈: the same amount, converted by molar mass. Where two headings read alike, the source gives them in different places.

Experiments:
S. apiospermum = assay: Broth dilution antifungal susceptibility testing, S. apiospermum; format: cell-based, Pseudallescheria boydii; settings: Scedosporium apiospermum, 80% inhibition, read-out: minimum inhibitory concentration (MIC)
Method: (§1) A total of 23 isolates were tested to include 3 Candida albicans, 3 Candida glabrata, 3 Cryptococcus neoformans, 3 Aspergillus fumigatus, 3 Rhizopus oryzae, 3, Fusarium solani, 3 Pseudallescheria boydii, and 2 […]. All isolates were clinical isolates submitted to the Fungus Testing Laboratory for evaluation. Antifungal susceptibility testing was accomplished according to the methods outlined in the National Committee for Clinical Laboratory Standards, M-27A2, Reference Method for Broth Dilution Antifungal Susceptibility Testing of Yeasts; Approved Standard, and M38-A “Reference Method for Broth Dilution Antifungal Susceptibility Testing of Conidium-Forming Filamentous Fungi; Approved Standard”. This includes testing in RPMI-1640 with glutamine and without bicarbonate, an inoculum size of 0.5-2.5×10^3 for yeasts or […] for moulds, and incubation at 35° C. for 24 and 48 hours. […] Drug concentrations were 0.125-64 μg/ml. A 10 mg portion of each powder was weighed out and added to 1 ml of 100% DMSO for compound 205. The resulting concentration of […] was diluted to a working concentration of 6400 μg/ml for compound 205 in 100% DMSO. All subsequent dilutions were also made using the respective diluents. Final testing concentrations ranged from 0.125-64 μg/ml. The NCCLS recommended medium RPMI-1640 (Hardy Diagnostics, Santa Monica, Calif.) was utilized as the test medium. All isolates in this study were clinical isolates received in the Fungus Testing Laboratory for standard antifungal susceptibility testing and/or identification. Isolates, which were not sent for identification, were confirmed to assure testing integrity. A total of 23 were tested to include 3 Candida albicans, 3 Candida glabrata, 3 Cryptococcus neoformans, 3 Aspergillus fumigatus, 3 Rhizopus oryzae, 3, Fusarium solani, 3 Pseudallescheria boydii, and 2 […]. Minimum inhibitory concentrations (MIC) were determined at the first 24-hour interval where growth could be determined in the drug-free control tube.

C. neoformans = assay: Broth dilution antifungal susceptibility testing, C. neoformans; format: cell-based; settings: Cryptococcus neoformans, 50% reduction in turbidity, read-out: minimum inhibitory concentration (MIC)
Method: as §1

C. glabrata = assay: Broth dilution antifungal susceptibility testing, C. glabrata; format: cell-based, Candida glabrata; settings: Nakaseomyces glabratus, 50% reduction in turbidity, read-out: minimum inhibitory concentration (MIC)
Method: as §1

T. rubrum = assay: Broth dilution antifungal susceptibility testing, T. rubrum; format: cell-based, Trichophyton rubrum; settings: Trichophyton rubrum, 80% inhibition, read-out: minimum inhibitory concentration (MIC)
Method: as §1

R. arrhizus = assay: Broth dilution antifungal susceptibility testing, R. arrhizus; format: cell-based, Rhizopus oryzae; settings: Rhizopus arrhizus, 80% inhibition, read-out: minimum inhibitory concentration (MIC)
Method: as §1

CP Control = assay: Broth dilution antifungal susceptibility testing, CP Control; format: cell-based; settings: read-out: minimum inhibitory concentration (MIC)
Method: as §1

A. fumigatus = assay: Broth dilution antifungal susceptibility testing, A. fumigatus; format: cell-based, Aspergillus fumigatus; settings: Aspergillus fumigatus, 80% inhibition, read-out: minimum inhibitory concentration (MIC)
Method: as §1

F. solani = assay: Broth dilution antifungal susceptibility testing, F. solani; format: cell-based; settings: Fusarium solani, 80% inhibition, read-out: minimum inhibitory concentration (MIC)
Method: as §1

C. albicans = assay: Broth dilution antifungal susceptibility testing, C. albicans; format: cell-based, Candida albicans; settings: Candida albicans, 50% reduction in turbidity, read-out: minimum inhibitory concentration (MIC)
Method: as §1

[1] = 24 h, isolate 07-1333, 24 hours
[2] = 24 h, isolate 07-1502, 24 hours
[3] = 24 h, isolate 07-1601, 24 hours
[4] = 48 h, isolate 07-1333, 48 hours
[5] = 48 h, isolate 07-1502, 48 hours
[6] = 48 h, isolate 07-1601, 48 hours
[7] = 24 h, isolate 07-2665, 24 hours
[8] = 24 h, isolate 07-2737, 24 hours
[9] = 24 h, isolate 07-2829, 24 hours
[10] = 48 h, isolate 07-2665, 48 hours
[11] = 48 h, isolate 07-2737, 48 hours
[12] = 48 h, isolate 07-2829, 48 hours
[13] = 24 h, isolate 07-2964, 24 hours
[14] = 24 h, isolate 07-2965, 24 hours
[15] = 24 h, isolate 07-3013, 24 hours
[16] = 48 h, isolate 07-2964, 48 hours
[17] = 48 h, isolate 07-2965, 48 hours
[18] = 48 h, isolate 07-3013, 48 hours
[19] = 24 h, isolate 07-1743, 24 hours
[20] = 24 h, isolate 07-2055, 24 hours
[21] = 48 h, isolate 07-1743, 48 hours
[22] = 48 h, isolate 07-2055, 48 hours
[23] = 24 h, isolate 07-1870, 24 hours
[24] = 24 h, isolate 07-2044, 24 hours
[25] = 24 h, isolate 07-2078, 24 hours
[26] = 48 h, isolate 07-1870, 48 hours
[27] = 48 h, isolate 07-2044, 48 hours
[28] = 48 h, isolate 07-2078, 48 hours
[29] = 24 h, isolate 06-4126, 24 hours
[30] = 24 h, isolate 07-2039, 24 hours
[31] = 48 h, isolate 06-4126, 48 hours
[32] = 48 h, isolate 07-2039, 48 hours
[33] = 24 h, isolate 07-1399, 24 hours
[34] = 24 h, isolate 07-1755, 24 hours
[35] = 24 h, isolate 07-1867, 24 hours
[36] = 48 h, isolate 07-1399, 48 hours
[37] = 48 h, isolate 07-1755, 48 hours
[38] = 48 h, isolate 07-1867, 48 hours
[39] = 24 h, isolate 07-3006, 24 hours
[40] = 24 h, isolate 07-3011, 24 hours
[41] = 24 h, isolate 07-3012, 24 hours
[42] = 48 h, isolate 07-3006, 48 hours
[43] = 48 h, isolate 07-3011, 48 hours
[44] = 48 h, isolate 07-3012, 48 hours

Structure (SMILES): O=C(NCCCCCCNC(=O)c1ccccc1S)c1ccccc1S [Compound 204, Bis-1,6-(2-mercaptobenzoylamino)hexane]
- MIC (S. apiospermum; [1]): 0.5 µg/mL (≈ 1.29 µM)
- MIC (S. apiospermum; [2]): 2 µg/mL (≈ 5.15 µM)
- MIC (S. apiospermum; [3]): < 0.125 µg/mL
- MIC (S. apiospermum; [4]): 1 µg/mL (≈ 2.57 µM)
- MIC (S. apiospermum; [5]): 2 µg/mL (≈ 5.15 µM)
- MIC (S. apiospermum; [6]): 0.5 µg/mL (≈ 1.29 µM)
- MIC (C. neoformans; [7]): 4 µg/mL (≈ 10.3 µM)
- MIC (C. neoformans; [8]): > 64 µg/mL
- MIC (C. neoformans; [9]): > 64 µg/mL
- MIC (C. neoformans; [10]): 4 µg/mL (≈ 10.3 µM)
- MIC (C. neoformans; [11]): > 64 µg/mL
- MIC (C. neoformans; [12]): > 64 µg/mL
- MIC (C. glabrata; [13]): > 64 µg/mL
- MIC (C. glabrata; [14]): > 64 µg/mL
- MIC (C. glabrata; [15]): > 64 µg/mL
- MIC (C. glabrata; [16]): > 64 µg/mL
- MIC (C. glabrata; [17]): > 64 µg/mL
- MIC (C. glabrata; [18]): > 64 µg/mL
- MIC (T. rubrum; [19]): 1 µg/mL (≈ 2.57 µM)
- MIC (T. rubrum; [20]): 1 µg/mL (≈ 2.57 µM)
- MIC (T. rubrum; [21]): 1 µg/mL (≈ 2.57 µM)
- MIC (T. rubrum; [22]): 1 µg/mL (≈ 2.57 µM)
- MIC (R. arrhizus; [23]): > 64 µg/mL
- MIC (R. arrhizus; [24]): > 64 µg/mL
- MIC (R. arrhizus; [25]): > 64 µg/mL
- MIC (R. arrhizus; [26]): > 64 µg/mL
- MIC (R. arrhizus; [27]): > 64 µg/mL
- MIC (R. arrhizus; [28]): > 64 µg/mL
- MIC (CP Control; 24 hours): 8 µg/mL (≈ 20.6 µM)
- MIC (CP Control; 48 hours): > 64 µg/mL
- MIC (A. fumigatus; 24 h, isolate 05-388, 24 hours): 2 µg/mL (≈ 5.15 µM)
- MIC (A. fumigatus; [29]): 1 µg/mL (≈ 2.57 µM)
- MIC (A. fumigatus; [30]): 1 µg/mL (≈ 2.57 µM)
- MIC (A. fumigatus; 48 h, isolate 05-388, 48 hours): > 64 µg/mL
- MIC (A. fumigatus; [31]): > 64 µg/mL
- MIC (A. fumigatus; [32]): > 64 µg/mL
- MIC (F. solani; [33]): > 64 µg/mL
- MIC (F. solani; [34]): > 64 µg/mL
- MIC (F. solani; [35]): > 64 µg/mL
- MIC (F. solani; [36]): > 64 µg/mL
- MIC (F. solani; [37]): > 64 µg/mL
- MIC (F. solani; [38]): > 64 µg/mL
- MIC (C. albicans; [39]): > 64 µg/mL
- MIC (C. albicans; [40]): > 64 µg/mL
- MIC (C. albicans; [41]): > 64 µg/mL
- MIC (C. albicans; [42]): > 64 µg/mL
- MIC (C. albicans; [43]): > 64 µg/mL
- MIC (C. albicans; [44]): > 64 µg/mL

Structure (SMILES): O=C(CCCCCNC(=O)c1cc(Cl)ccc1S)Nc1ccccc1 [Compound 210]
- MIC (S. apiospermum; [1]): 1 µg/mL (≈ 2.65 µM)
- MIC (S. apiospermum; [2]): 1 µg/mL (≈ 2.65 µM)
- MIC (S. apiospermum; [3]): 1 µg/mL (≈ 2.65 µM)
- MIC (S. apiospermum; [4]): > 64 µg/mL
- MIC (S. apiospermum; [5]): > 64 µg/mL
- MIC (S. apiospermum; [6]): > 64 µg/mL
- MIC (C. neoformans; [7]): > 64 µg/mL
- MIC (C. neoformans; [8]): > 64 µg/mL
- MIC (C. neoformans; [9]): > 64 µg/mL
- MIC (C. neoformans; [10]): > 64 µg/mL
- MIC (C. neoformans; [11]): > 64 µg/mL
- MIC (C. neoformans; [12]): > 64 µg/mL
- MIC (C. glabrata; [13]): > 64 µg/mL
- MIC (C. glabrata; [14]): > 64 µg/mL
- MIC (C. glabrata; [15]): > 64 µg/mL
- MIC (C. glabrata; [16]): > 64 µg/mL
- MIC (C. glabrata; [17]): > 64 µg/mL
- MIC (C. glabrata; [18]): > 64 µg/mL
- MIC (T. rubrum; [19]): 0.25 µg/mL (≈ 0.663 µM)
- MIC (T. rubrum; [20]): 0.25 µg/mL (≈ 0.663 µM)
- MIC (T. rubrum; [21]): 0.5 µg/mL (≈ 1.33 µM)
- MIC (T. rubrum; [22]): 0.5 µg/mL (≈ 1.33 µM)
- MIC (R. arrhizus; [23]): 4 µg/mL (≈ 10.6 µM)
- MIC (R. arrhizus; [24]): 4 µg/mL (≈ 10.6 µM)
- MIC (R. arrhizus; [25]): > 64 µg/mL
- MIC (R. arrhizus; [26]): > 64 µg/mL
- MIC (R. arrhizus; [27]): > 64 µg/mL
- MIC (R. arrhizus; [28]): > 64 µg/mL
- MIC (A. fumigatus; 24 h, isolate 05-388, 24 hours): 2 µg/mL (≈ 5.31 µM)
- MIC (A. fumigatus; [29]): 2 µg/mL (≈ 5.31 µM)
- MIC (A. fumigatus; [30]): 2 µg/mL (≈ 5.31 µM)
- MIC (A. fumigatus; 48 h, isolate 05-388, 48 hours): > 64 µg/mL
- MIC (A. fumigatus; [31]): > 64 µg/mL
- MIC (A. fumigatus; [32]): > 64 µg/mL
- MIC (F. solani; [33]): 1 µg/mL (≈ 2.65 µM)
- MIC (F. solani; [34]): 1 µg/mL (≈ 2.65 µM)
- MIC (F. solani; [35]): 2 µg/mL (≈ 5.31 µM)
- MIC (F. solani; [36]): > 64 µg/mL
- MIC (F. solani; [37]): > 64 µg/mL
- MIC (F. solani; [38]): > 64 µg/mL
- MIC (C. albicans; [39]): > 64 µg/mL
- MIC (C. albicans; [40]): > 64 µg/mL
- MIC (C. albicans; [41]): > 64 µg/mL
- MIC (C. albicans; [42]): > 64 µg/mL
- MIC (C. albicans; [43]): > 64 µg/mL
- MIC (C. albicans; [44]): > 64 µg/mL
